These are literature values, as cited in patent US20240041762A1 (Zambon S.p.A., priority 2020, published 2024).

The subject of data set [1] is invasive aspergillosis. The settings on record: in vivo.

On to `OC(Cn1cncn1)(Cn1cncn1)c1ccc(F)cc1F` [Fluconazole], for which the “activity against invasive aspergillosis” value in data set [1] is listed as “not active”.

For `CCC(C)n1ncn(-c2ccc(N3CCN(c4ccc(OCC5COC(Cn6cncn6)(c6ccc(Cl)cc6Cl)O5)cc4)CC3)cc2)c1=O` (stereo not shown) [itraconazole], for the setting “healthy volunteers”, the “ELF exposure as fraction of the plasma concentration” value is “approximately ⅓” and the “concentration in the alveolar cells with respect to the plasma concentration” value is “more than double”. Also, the “concentrations in bronchoalveolar lavage fluid and lung tissue, times lower than plasma” value (other cases) is reported as 10 times.
